“And” between values parts separate entries of the source, which are not always exact repeats. Equal values may be shown once. Read-outs that look alike come from different tables or passages of the source.

Data set [1] has as its system Caenorhabditis elegans. Nature of the data set: Insecticidal activity against Caenorhabditis elegans. The class given is in vivo. The conditions noted are these: Caenorhabditis elegans, 100 μg/mL; read-out: insecticidal activity, Caenorhabditis elegans.
The test system of data set [2] is Ostrinia furnacalis. The data set is described as follows: Insecticidal activity against Ostrinia furnacalis. The data set is classed as in vivo. The conditions noted are these: Ostrinia furnacalis; 100 μg/mL; read-out: insecticidal activity, Ostrinia furnacalis.
For data set [3], the system named is Cercospora arachidicola. The data set is described as follows: Fungicidal activity, fungicide growth rate method, CA. The class given is cell-based. Particulars: Mycosphaerella arachidis, 50 μg/mL; read-out: fungicidal activity (growth inhibition rate), CA.
Data set [4] concerns Helicoverpa armigera (Hübner). The data set is described as follows: Insecticidal activity against Helicoverpa armigera (Hübner). The data set is classed as in vivo. Particulars: Helicoverpa armigera; 100 μg/mL; read-out: insecticidal activity, Helicoverpa armigera (Hübner).
For data set [5], the system named is Mythimna separate (Walker). Nature of the data set: Insecticidal activity against Mythimna separate (Walker). The class given is in vivo. The conditions noted are these: Mythimna, 100 μg/mL; read-out: insecticidal activity, Mythimna separate (Walker).
The test system of data set [6] is Phytophthora infestans (Mont.) de Bary. Nature of the data set: microbe, parasite or virus in culture. The data set is classed as cell-based. Particulars: Phytophthora infestans, read-out: fungicidal activity (growth inhibition rate), PI, 50 μg/mL.
The subject of data set [7] is wheat Gibberella zeae. The data set is described as follows: microbe, parasite or virus in culture. The class given is cell-based. The conditions noted are these: Fusarium graminearum, read-out: fungicidal activity (growth inhibition rate), GZ, 50 μg/mL.
Data set [8] concerns Rhizoctonia cerealis. Nature of the data set: Fungicidal activity, fungicide growth rate method, RC. Particulars: 50 μg/mL; for inhibition at 50 µg/mL: Ceratobasidium cereale, read-out: fungicidal activity (growth inhibition rate), RC. The data set is classed as cell-based.
Data set [9] has as its system Pellicularia sasakii. Nature of the data set: Fungicidal activity, fungicide growth rate method, PS. The conditions noted are these: 50 μg/mL; read-out: fungicidal activity (growth inhibition rate), PS. The data set is classed as cell-based.
For data set [10], the system named is Apis mellifera ligustica Spin. The conditions noted are these: for Death number after 24 h / Death number after 48 h: per replicate of 10 bees.
Data set [11] relates to Botrytis cinerea. The data set is described as follows: Fungicidal activity, fungicide growth rate method, BC. The data set is classed as cell-based. Particulars: Botrytis cinerea, 50 μg/mL; read-out: fungicidal activity (growth inhibition rate), BC.
In data set [12] the test system is Physalospora piricola. The data set is described as follows: Fungicidal activity, fungicide growth rate method, PP. The conditions noted are these: 50 μg/mL; read-out: fungicidal activity (growth inhibition rate), PP. The class given is cell-based.
Data set [13] has as its system Alternaria solani. Nature of the data set: Fungicidal activity, fungicide growth rate method, AS. The class given is cell-based. Particulars: Alternaria solani, 50 μg/mL; read-out: fungicidal activity (growth inhibition rate), AS.

As to `C=CC[C@@H]1C[C@@]2(OC(C)=O)C[C@@H](CC=C)[C@H]3CC=CC[C@@]32O1` [Zyj07-38], the pest or weed control at 100 µg/mL in data set [1] was > 30%; in data set [2], 5%; in data set [4] it was 10%; in data set [5] it was 15%. Further, in [3], the inhibition at 50 µg/mL was > 50%.

Regarding `CCOC(=O)C(C(=O)OCC)C1C[C@]2(O)C(C(=O)OCC)C(=O)O[C@@]23CC=CC[C@H]13` (some centres unmarked) [Zyj06-113-3], the pest or weed control at 100 µg/mL was 5% in [1], 0% in data set [2], 0% in [4] and 0% in data set [5]. Also, the inhibition at 50 µg/mL in data set [6] was 11%; in data set [7] it was 43%; in [8], 32%; in data set [3], > 50%; in [9] it was 11%; in data set [11] it was > 50%. Also, the “Death rate after 48 h (%)” value in data set [10] (dosage 9.87 μg a.i./bee) is reported as 0%; in data set [10] (dosage 15.2 μg a.i./bee) it was 10.0%. For the same compound, the “Death number after 24 h” value in [10] (dosage 9.87 μg a.i./bee) and in [10] (dosage 15.2 μg a.i./bee) was 0 in each case. Moreover, the “Death number after 48 h” value in data set [10] (dosage 9.87 μg a.i./bee) is listed as 0; in [10] (dosage 15.2 μg a.i./bee), 1.

`O=C1C[C@@]2(O)CC[C@H]3C[C@@H](O)[C@@H](Cl)C[C@@]32O1` [Zyj07-103]: the values for the pest or weed control at 100 µg/mL in data set [2], in [4] and in [5] were 10%, 15% and > 30%, respectively. The inhibition at 50 µg/mL was 42% in [6]; 47% in [7]; 4% in data set [8]; 38% in data set [3]; 0% in [9]; > 50% in data set [12]. For the same compound, the inhibition at 50 µg/mL in data set [11] came to 27%.

With `O=C1CCC23CC=CCC12O3` (centres unmarked) [Zyj06-39], the pest or weed control at 100 µg/mL in data set [1] is > 30%; in data set [2], 0%; in data set [4], 0%; in data set [5] it was 10%. Besides, the inhibition at 50 µg/mL in data set [6] was 27%; in [13], > 60%; in data set [11], 36%. Moreover, in data set [8], the “fungicidal activity (growth inhibition rate), RC” value came out at 93%.

`C=CC[C@@H]1C[C@]2(OC(C)=O)C[C@@H](OC(C)=O)O[C@@]23C[C@H]2O[C@H]2C[C@H]13` [Zyj07-65-1]: the pest or weed control at 100 µg/mL in [1] was 12%; in data set [2], 5%; in [4] it was 10%; in data set [5] it was 25%. The “Death rate after 48 h (%)” value in data set [10] (dosage 7.54 μg a.i./bee) and in data set [10] (dosage 18.1 μg a.i./bee) was 10.0% in each case. Further, the “Death number after 24 h” value in data set [10] (dosage 7.54 μg a.i./bee) is 0 and 1; in data set [10] (dosage 18.1 μg a.i./bee), 0 and 1. Moreover, the “Death number after 48 h” value is 0 and 2 in data set [10] (dosage 7.54 μg a.i./bee); 0 and 2 in [10] (dosage 18.1 μg a.i./bee).

Regarding `C=CC[C@@H]1C[C@@]2(O)C[C@@H](CC=C)[C@H]3CC[C@@H](O)C[C@@]32O1` [Zyj07-69], the pest or weed control at 100 µg/mL in data set [1] is 10%; in [2] it was 10%; in data set [4], 15%; in data set [5], 25%. In addition, the “Death rate after 48 h (%)” value in [10] (dosage 9.71 μg a.i./bee) is recorded as 5.0%. Further, the “Death number after 24 h” value in [10] (dosage 9.71 μg a.i./bee) came to 0. Besides, in [10] (dosage 9.71 μg a.i./bee), the “Death number after 48 h” value is 0 and 1.

Regarding `C=CCC1CC2(O)CC(CC=C)C3CC=CCC32O1` (racemic) [Zyj-7-98], in [10] (dosage 12.0 μg a.i./bee), the “Death rate after 48 h (%)” value was determined as 0%, the “Death number after 24 h” value is 0 and the “Death number after 48 h” value was determined as 0.
